In patent US9381196B2, “Compounds, pharmaceutical compositions and methods of use of hydroxamic acid derivatives” (THE TRANSLATIONAL GENOMICS RESEARCH INSTITUTE, priority 2008, dated 2016):
Where two headings read alike, the source gives them in different places.

Legend:
Skov-3 cells = test: CellTiter-Blue cell viability assay, SKOV3 cell line; format: cell-based; conditions: cell growth inhibition
Text: Cell viability in the presence of varying concentrations of the above listed aspects of the disclosed compound at different time points was used to assess cytotoxicity and the effect of the disclosed compound on cell proliferation.

MiaPaca cells = test: CellTiter-Blue cell viability assay, MiaPaCa cell line; format: cell-based, human; conditions: cell growth inhibition
Text: (§6) Where X is the logarithm of concentration and Y is the response. Y starts at the Bottom and goes to Top with a sigmoid shape.

H23 cell line = conditions: 72 hours treatment
Method: (§1) Cell viability was measured by the CellTiter-Blue® cell viability assay Promega (Madison, Wis.). This procedure measures the conversion of the indicator dye (resazurin) to resorufin, an indicator of cell viability. Following treatment, growth media was removed and cells were incubated with 20 μl of CellTiter-Blue® Reagent and growth media for 1-4 hours at 37° C. Fluorescence values were measured at 535/590 nm using a Beckman-Coulter DTX-880 microplate reader.
(§2) Cells were grown to 70% confluency, trypsinized, counted, and seeded in 96 well flat-bottom plates at a final concentration of 2.5×10^3-5×10^3 cells/well (Day 0). Cells were allowed to incubate in growth media for 24 hours to allow for maximum adhesion. Treatment with the test agents or standard agents began on Day 1 and continued for 72 hours. At the 72 hour timepoint, treatment including media was removed. Viable cell numbers are quantified by the CellTiter-Blue® cell viability assay as described above. Experiments were repeated at least twice with the same concentrations to determine growth inhibitory activity.
(§3) Single agent and combination studies, data from each experiment was collected and expressed as % Cell Growth using the following calculation: % Cell Growth=(ftest/fvehicle)×100
(§4) Where ftest is the fluorescence of the tested sample, and fvehicle is the fluorescence of the vehicle in which the drug is dissolved. Dose response graphs and IC50 values were generated using Prism 4 software (GraphPad) using the following equation: […]
(§5) Where X is the logarithm of concentration and Y is the response.

A2780 cell line = conditions: 72 hours treatment
Method: as §1, §2, §3, §4, §5

VCAP cell line = conditions: 72 hours treatment
Method: as §1, §2, §3, §4, §5

MV522 cell line = conditions: 72 hours treatment
Method: as §1, §2, §3, §4, §5

PANC-1 cell line = conditions: 72 hours treatment
Method: as §1, §2, §3, §4, §5

H295R cell line = conditions: 72 hours treatment
Method: as §1, §2, §3, §4, §5

[1] = system: MIA PaCa-2 human pancreas cells xenograft; conditions: MIA PaCa-2 xenograft in nude mice
Method: In vivo efficacy of the disclosed compound was tested through a human pancreas tumor xenograft model. Female Ncr nude mice were inoculated with 1×10^7 MIA PaCa-2 human pancreas cells suspended in a mixture of 50% Matrigel and 50% tissue culture media in a total volume of […] When the tumors reached a mean weight of 157 mg, the mice were separated into four groups of 7-8 mice per group and treated. One group was treated with vehicle only. A second group was treated with Compound ID #15 at 50 mg/kg. A third group was treated with Compound ID #15 at 100 mg/kg and a fourth group was treated with Gemcitabine at 80 mg/kg. Vehicle and Compound ID #15 were administered by mouth while Gemcitabine was administered via an intraperitoneal injection. Body weights and tumor size data were collected twice weekly. Tumor width and length were measured in millimeters and converted to tumor weight (in milligrams) using the formula (width^2×Length/2)=tumor weight (mg.)

mdamb231 cells = test: CellTiter-Blue cell viability assay, mdamb231 cell line; format: cell-based; conditions: cell growth inhibition
Text: as §6

[2] = Homo sapiens, SK-OV-3, 72 hours treatment
[3] = Homo sapiens, MIA PaCa-2, 72 hours treatment
[4] = Homo sapiens, MDA-MB-231, 72 hours treatment

Compound | IC50 (Skov-3 cells; [2]) [nM] | IC50 (MiaPaca cells; [3]) [nM] | further results
O=C(CCCCCCc1nc2c(Cl)cccc2[nH]1)NO [Compound ID 26, 7-(4-chloro-1H-benzo[d]imidazol-2-yl)-N-hydroxyheptanamide] | 10200 | 8500 | –
7-(5-bromo-1H-benzimidazol-2-yl)-N-hydroxy heptanamide [Compound ID 15] | – | – | IC50 (H23 cell line): 560 nM; IC50 (A2780 cell line): 1900 nM; IC50 (VCAP cell line): 2400 nM; IC50 (MV522 cell line): 2200 nM; IC50 (PANC-1 cell line): 130 nM; IC50 (H295R cell line): 180 nM; IC50 (MiaPaca cells; 72 hours treatment): 820 nM; slowing growth of the xenografts ([1]; 50 mg/kg by mouth): no more effective than the vehicle control; slowing growth of the xenografts ([1]; 100 mg/kg by mouth, comparator gemcitabine 80 mg/kg intraperitoneal): about as effective as gemcitabine; IC50 (Skov-3 cells; 72 hours treatment): 270 nM; IC50 (mdamb231 cells; 72 hours treatment): 890 nM
O=C(CCCCCCc1nc2ccccc2n1C1CCCC1)NO [Compound ID 25, 7-(1-cyclopentyl-1H-benzo[d]imidazol-2-yl)-N-hydroxyheptanamide] | 4800 | 2300 | –
O=C(CCCCCCc1nc2ccccc2n1C1CC1)NO [Compound ID 24, 7-(1-cyclopropyl-1H-benzo[d]imidazol-2-yl)-N-hydroxyheptanamide] | 9500 | 4000 | –
O=C(CCCCCCc1nc2ccccc2n1-c1ccccc1)NO [Compound ID 27, N-hydroxy-7-(1-phenyl-1H-benzo[d]imidazol-2-yl)heptanamide] | > 10000 | > 10000 | –
CN(C)c1ccc(-c2ccc3[nH]c(CCCCCCC(=O)NO)nc3c2)cc1 [Compound ID 31, 7-(5-(4-(dimethylamino)phenyl)-1H-benzo[d]imidazol-2-yl)-N-hydroxyheptanamide] | 6600 | – | –
COc1ccc2[nH]c(CCCCCCC(=O)NO)nc2c1 [Compound ID 17, N-hydroxy-7-(5-methoxy-1H-benzo[d]imidazol-2-yl)heptanamide] | > 10000 | – | –
O=C(CCCCCc1nc2ccccc2[nH]1)NO [Compound ID 16, 6-(1H-benzo[d]imidazol-2-yl)-N-hydroxyhexanamide] | 11000 | – | –
O=C(CCCCCCc1nc2cc(-c3ccccc3F)ccc2[nH]1)NO [Compound ID 32, 7-(5-(2-fluorophenyl)-1H-benzo[d]imidazol-2-yl)-N-hydroxyheptanamide] | 7400 | – | –
O=C(CCCCCCc1nc2ccncc2[nH]1)NO [Compound ID 23, N-hydroxy-7-(3H-imidazo[4,5-c]pyridin-2-yl)heptanamide] | > 10000 | > 10000 | –
Cn1c(CCCCCCC(=O)NO)nc2ccccc21 [Compound ID 19, N-hydroxy-7-(1-methyl-1H-benzo[d]imidazol-2-yl) heptanamide] | – | – | IC50 (Skov-3 cells; 72 hours treatment): 3000 nM

The next lines start with results.

IC50 (Skov-3 cells; [2]) [nM] | IC50 (MiaPaca cells; [3]) [nM] | Compound | further results
320 | – | O=C(CCCCCCc1nc2cc(Cl)ccc2[nH]1)NO [Compound ID 22, 7-(5-chloro-1H-benzo[d]imidazol-2-yl)-N-hydroxyheptanamide] | –
3200 | – | COc1ccc(-c2ccc3[nH]c(CCCCCCC(=O)NO)nc3c2)cc1 [Compound ID 33, N-hydroxy-7-(5-(4-methoxyphenyl)-1H-benzo[d]imidazol-2-yl)heptanamide] | –
2600 | – | O=C(CCCCCCc1nc2cc(-c3cncnc3)ccc2[nH]1)NO [Compound ID 28, N-hydroxy-7-(5-(pyrimidin-5-yl)-1H-benzo[d]imidazol-2-yl)heptanamide] | IC50 (mdamb231 cells; [4]): 540 nM
2700 | 1900 | O=C(CCCCCCc1nc2ccccc2[nH]1)NO [Compound ID 14, 7-(1H-benzo[d]imidazol-2-yl)-N-hydroxyheptanamide] | –
1200 | – | O=C(CCCCCCc1nc2cc(-c3ccc(F)cc3)ccc2[nH]1)NO [Compound ID 29, 7-(5-(4-fluorophenyl)-1H-benzo[d]imidazol-2-yl)-N-hydroxyheptanamide] | IC50 (mdamb231 cells; [4]): 210 nM
1500 | – | O=C(CCCCCCc1nc2cc(-c3cccc(F)c3)ccc2[nH]1)NO [Compound ID 30, 7-(5-(3-fluorophenyl)-1H-benzo[d]imidazol-2-yl)-N-hydroxyheptanamide] | IC50 (mdamb231 cells; [4]): 330 nM
98 | 400 | O=C(CCCCCCc1nc2cc(-c3ccccc3)ccc2[nH]1)NO [Compound ID 18, N-hydroxy-7-(5-phenyl-1H-benzo[d]imidazol-2-yl)heptanamide] | –
1900 | – | O=C(CCCCCCc1nc2cc(F)ccc2[nH]1)NO [Compound ID 21, 7-(5-fluoro-1H-benzo[d]imidazol-2-yl)-N-hydroxyheptanamide] | –
1200 | – | CN(C)c1ccc2[nH]c(CCCCCCC(=O)NO)nc2c1 [Compound ID 20, 7-(5-(dimethylamino)-1H-benzo[d]imidazol-2-yl)-N-hydroxyheptanamide] | –
